≈ marks a conversion by molar mass, not a printed value. Counter-ions that a name gives are not always drawn. Like-named read-outs stand apart in the source and are kept apart here.
Tests used:
Assay type in all cases: cell-based
[1] = system: Aspergillus flavus AFL1 (ATCC MYA-3631); assay: Fungal MIC Protocol, Aspergillus flavus; settings: Aspergillus flavus, read-out: MIC Aspergillus flavus 3631
In short: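 Aspergillus flavus spores were grown on Potato Dextrose Agar at 35° C. for 3-5 days, harvested in PBS pH 7.4+0.1% Tween-20 with glass beads, and diluted in RPMI/MOPS to an OD530 of 0.002 (about 2×10^4 cfu/mL). 50 ul of spores were combined with 50 μl of serially diluted compound in 96-well round bottom plates and incubated at 35° C. for 48 hours.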

[2] = system: Aspergillus fumigatus T33439 (ATCC MYA-3626); assay: Fungal MIC Protocol, Aspergillus fumigatus; settings: Aspergillus fumigatus, read-out: MIC Aspergillus fumigatus 3626
In short: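 Aspergillus fumigatus was grown on Potato Dextrose Agar at 35° C. for 3-5 days, and spores were collected with PBS pH 7.4+0.1% Tween-20 plus glass beads. Spores were diluted in RPMI/MOPS to OD530 0.002 (about 2×10^4 cfu/mL). 50 ul was added to 50 μl of serially diluted compound in round bottom 96-well plates, run in duplicate, and incubated at 35° C. for 48 hours.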

[3] = system: Fusarium falciforme FS1 (ATCC MYA-3636); assay: Fungal MIC Protocol, Fusarium falciforme; settings: Fusarium falciforme, read-out: MIC Fusarium falciforme 3636
In short: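 Fusarium falciforme spores were raised on Potato Dextrose Agar at 35° C. for 3-5 days, collected in PBS pH 7.4+0.1% Tween-20 with glass beads, and diluted in RPMI/MOPS pH 7.0 to OD530 0.005 (about 2×10^4 cfu/mL). 50 ul spores were added to 50 μl duplicate serial compound dilutions in round bottom 96-well plates and incubated at 35° C. for 48 hours.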

[4] = system: Fusarium solani (ATCC 58877); assay: Fungal MIC Protocol, Fusarium solani; settings: Fusarium solani, read-out: MIC Fusarium solani 58877
In short: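 Fusarium solani spores were grown on Potato Dextrose Agar in tissue culture flasks at 35° C. for 3-5 days, harvested with PBS pH 7.4+0.1% Tween-20 and glass beads, and diluted in RPMI/MOPS to an OD530 of 0.005 (about 2×10^4 cfu/mL). Equal 50 ul volumes of spores and serially diluted compound were combined in 96-well round bottom plates and incubated 48 hours at 35° C.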

[5] = system: Mucor circinelloides 1463(62) (ATCC 26759); assay: Fungal MIC Protocol, Mucor circinelloides (MIC-50); settings: Mucor circinelloides, read-out: MIC-50 Mucorales circinelloides 26579
In short: (§1)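 MIC-type endpoint: >50% growth inhibition, judged by eye with an inverted mirror. Spores in RPMI/MOPS (pH 7.0, ~2×10^4 cfu/mL) were incubated 48 hours at 35° C with duplicate serial compound dilutions.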

[6] = system: Mucor ramosissimus 057718 (ATCC 90286); assay: Fungal MIC Protocol, Mucor ramosissimus (MIC-50); settings: Mucor ramosissimus, read-out: MIC-50 Mucorales ramosissimus 90286
In short: as §1

Candida albicans GDH2346 = assay: Candida Minimal Inhibitory Concentration (MIC); settings: Candida albicans, read-out: MIC-50 Candida albicans GDH2346
In short: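 Twofold serial dilutions from 200 μg/mL in RPMI 1640/MOPS with glucose, pH 7.0, tested in duplicate against yeast from an OD600 1.0 suspension diluted 1:1000. Incubated at 35° C; OD600 read at 24 and 48 h.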

[7] = 100% growth inhibition at 48 hours
[8] = ATCC58877, 100% growth inhibition at 48 hours
[9] = ATCC26759, 50% growth inhibition at 48 hours
[10] = ATCC90286, 50% growth inhibition at 48 hours
[11] = GDH2346, 50% growth inhibition at 48 hours

SMILES	MIC [1, 7] [µg/mL]	MIC [2, 7] [µg/mL]	MIC [3, 7] [µg/mL]	MIC [4, 8] [µg/mL]	MIC50 [5, 9] [µg/mL]	MIC50 [6, 10] [µg/mL]	MIC50 (Candida albicans GDH2346; [11]) [µg/mL]	MIC ([1]; 48 h) [µg/mL]	MIC ([2]; 48 h) [µg/mL]	MIC ([3]; 48 h) [µg/mL]	MIC ([4]; ATCC58877, 48 h) [µg/mL]	MIC50 ([5]; ATCC26759, 48 h) [µg/mL]	MIC50 ([6]; ATCC90286, 48 h) [µg/mL]	MIC50 (Candida albicans GDH2346; GDH2346, 48 h) [µg/mL]
N=C(N)N1CC=C(c2ccc(-c3nnc(-c4ccc(C5=CCN(C(=N)N)CC5)cc4)n3C3CCC3)cc2)CC1 [Example 6, 4,4′-(4,4′-(4-Cyclobutyl-4H-1,2,4-triazole-3,5-diyl)bis(4,1-phenylene))bis(5,6-dihydropyridine-1(2H)-carboximidamide)]	0.39 (≈ 0.748 µM)	0.2 (≈ 0.383 µM)	< 0.1	0.39 (≈ 0.748 µM)	0.78 (≈ 1.5 µM)	1.56 (≈ 2.99 µM)	3.13 (≈ 6 µM)							
CC(C)n1c(-c2ccc(C3=CCN(C(=N)N)CC3)cc2)nnc1-c1ccc(C2=CCN(C(=N)N)CC2)cc1 [Example 3, 4,4′-(4,4′-(4-isopropyl-4H-1,2,4-triazole-3,5-diyl)bis(4,1-phenylene))bis(5,6-dihydropyridine-1 (2H)-carboximidamide)]	< 0.1	< 0.1	< 0.1	< 0.1	0.39 (≈ 0.765 µM)	0.78 (≈ 1.53 µM)	0.1 (≈ 0.196 µM)							
N=C(N)N1CC=C(c2ccc(-c3nnc(-c4ccc(C5=CCN(C(=N)N)CC5)cc4F)n3CCCO)c(F)c2)CC1 [Example 73, 4-(4-{5-[4-(1-carbamimidoyl-1,2,3,6-tetrahydropyridin-4-yl)-2-fluorophenyl]-4-(3-hydroxypropyl)-4H-1,2,4-triazol-3-yl}-3-fluorophenyl)-1,2,3,6-tetrahydropyridine-1-carboximidamide hydrochloride]								0.2	0.1	0.1	0.05	1.56	3.13	0.2

Now from value to compound, other results behind:

MIC [1, 7] [µg/mL]	MIC [2, 7] [µg/mL]	MIC [3, 7] [µg/mL]	MIC [4, 8] [µg/mL]	MIC50 [5, 9] [µg/mL]	MIC50 [6, 10] [µg/mL]	MIC50 (Candida albicans GDH2346; [11]) [µg/mL]	SMILES	MIC ([1]; 48 h) [µg/mL]	MIC ([2]; 48 h) [µg/mL]	MIC ([3]; 48 h) [µg/mL]	MIC ([4]; ATCC58877, 48 h) [µg/mL]	MIC50 ([5]; ATCC26759, 48 h) [µg/mL]	MIC50 ([6]; ATCC90286, 48 h) [µg/mL]	MIC50 (Candida albicans GDH2346; GDH2346, 48 h) [µg/mL]
0.39 (≈ 0.86 µM)	< 0.1	< 0.1	0.39 (≈ 0.86 µM)	6.25 (≈ 13.8 µM)	6.25 (≈ 13.8 µM)	1.56 (≈ 3.44 µM)	Cn1c(-c2ccc(C3=CCN(C(=N)N)C3)cc2)nnc1-c1ccc(C2=CCN(C(=N)N)C2)cc1 [Example 29]							
6.25 (≈ 13 µM)	> 25	0.39 (≈ 0.808 µM)	1.56 (≈ 3.23 µM)	25 (≈ 51.8 µM)	25 (≈ 51.8 µM)	0.39 (≈ 0.808 µM)	Cc1cc(-c2nnc(-c3ccc(C4=CCN(C(=N)N)CC4)cc3)o2)ccc1C1=CCN(C(=N)N)CC1 [Example 42, 4-(4-(5-(4-(1-Carbamimidoyl-1,2,3,6-tetrahydropyridin-4-yl)-3-methylphenyl)-1,3,4-oxadiazol-2-yl)phenyl)-5,6-dihydropyridine-1(2H)-carboximidamide]							
3.13 (≈ 5.21 µM)	3.13 (≈ 5.21 µM)	0.78 (≈ 1.3 µM)	< 0.1	> 100	> 100	25 (≈ 41.6 µM)	CN1CCC(n2c(-c3ccc(C4=CCN(C(=N)N)CC4)cc3F)nnc2-c2ccc(C3=CCN(C(=N)N)CC3)cc2F)CC1 [Example 15, 4,4′-(4,4′-(4-(1-Methylpiperidin-4-yl)-4H-1,2,4-triazole-3,5-diyl)bis(3-fluoro-4,1-phenylene))bis(5,6-dihydropyridine-1(2H)-carboximidamide)]							
0.1	0.1	0.05	0.05	1.56	12.5	0.3	Cl.N=C(N)N1CC=C(c2ccc(-c3nnc(-c4ccc(C5=CCN(C(=N)N)CC5)cc4)n3CCO)cc2)CC1 [Example 70, 4-(4-{5-[4-(1-carbamimidoyl-1,2,3,6-tetrahydropyridin-4-yl)phenyl]-4-(2-hydroxyethyl)-4H-1,2,4-triazol-3-yl}phenyl)-1,2,3,6-tetrahydropyridine-1-carboximidamide hydrochloride]							

— patent US20240018121A1, “NOVEL HETEROAROMATIC COMPOUNDS EXHIBITING ANTIFUNGAL ACTIVITY AND THEIR METHOD OF USE” (FOX CHASE CHEMCIAL DIVERSITY CENTER, INC., priority 2020, published 2024)
